Reference: patent US12617777B2, “GPR84 antagonists and uses thereof” (Liminal BioSciences Limited, priority 2021, dated 2026)

How the values were obtained:
human GPR84 receptor = biological target: T1, human GPR84 receptor (Homo sapiens, UniProt Q9NQS5); test: Gαi biosensor BRET assay in HEK293 cells (antagonism of ZQ-16); type: cell-based; settings: for inhibition at 2 µM: HEK293, single concentration 2 μM (designated A); for IC50: HEK293 cells, antagonism of 200 nmol/L ZQ-16; for inhibition at 25 µM: HEK293, single concentration 25 μM (designated I); for inhibition at 10 µM: HEK293, single concentration 10 μM (designated F)
T1 construct: host or cells: HEK293, transient transfection
T1 sequence (Q9NQS5 whole entry): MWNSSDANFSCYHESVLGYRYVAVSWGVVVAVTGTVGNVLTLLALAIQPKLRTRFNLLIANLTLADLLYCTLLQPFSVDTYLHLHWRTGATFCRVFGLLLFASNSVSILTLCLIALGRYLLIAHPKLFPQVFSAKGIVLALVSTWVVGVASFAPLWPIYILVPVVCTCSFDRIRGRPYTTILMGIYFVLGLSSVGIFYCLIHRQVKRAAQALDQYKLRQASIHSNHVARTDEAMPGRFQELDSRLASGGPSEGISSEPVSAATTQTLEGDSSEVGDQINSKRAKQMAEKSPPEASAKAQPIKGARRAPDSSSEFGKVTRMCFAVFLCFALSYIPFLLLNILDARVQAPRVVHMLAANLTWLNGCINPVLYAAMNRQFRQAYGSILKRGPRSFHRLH
In short: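 HEK293 cells transiently expressing human GPR84, Gαi2-Rluc8, GFP10-Gγ2 and Gβ1, in Tyrode's buffer pH 7.5. Compounds preincubated 5 min at 37° C, then 200 nmol/L ZQ-16 for 5 min at room temperature; coelenterazine 400A 5 μmol/L. BRET2 acceptor/donor ratio, background- and vehicle-corrected net BRET.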

neutrophils = test: Neutrophil migration assay (embelin as chemotactic agent, ATPlite readout); type: cell-based; settings: for IC50: Neutrophil, human neutrophils, embelin as chemotactic agent, read-out: Human Neutrophil migration inhibition IC50; for Human Neutrophil migration inhibition - fold potency to Control Compound: normalized to GPR84 antagonist Control Compound (average IC50 131 nM)
Procedure: Neutrophil migration assay. After isolation, neutrophils were resuspended in chemotaxis buffer (DMEM supplemented with 10 mM HEPES) at a concentration of 8.9×10^6 cells/ml. In a 96-well plate, 20 μl of compound solution in chemotaxis buffer is added to 180 μl of cell suspension. After incubation at 37° C. for 30 minutes, 75 μl of cell suspension is transferred in the upper chamber of a 5 μm pore size Corning HTS transwell. 235 μl of chemotaxis buffer containing the chemotactic agent (embelin) is added to the lower chamber of the transwell. After a 60-minute incubation time at 37° C. in 5%0 C02, the upper chamber of the transwell is removed and the plate is centrifuged at 1500 rpm for 6 minutes. Supermatant is removed and cells resuspended in 100 ul of PBS. ATP content was assessed using ATPlite Luminescence Assay System® according to manufacturer instructions (Perkin Elmer, Buckinghamshire, UK). Briefly, 50 μl of ATPlite buffer and 50 μl of lysis solution is added to the lower chamber of the Transwells. After incubation at room temperature, in the dark with constant agitation for 5 minutes, 150 μl of cell lysate is transferred in a 96 wells white plate and incubated for 10 minutes in the dark. Luminescence is read on a TECAN plate reader, Infinite M1000 (Tecan, Morrisville, NC).
The compound numbers correspond to the compound numbers in Table 1. […] Normalization of the results takes the donor's variation into account.

[1] = system: mouse dextran sodium sulfate-induced chronic inflammatory bowel disease model; settings: once-daily doses of 3 and 10 mg/kg; efficacy similar to sulfasalazine; cited from earlier work

Compound	inhibition at 2 µM (human GPR84 receptor)	IC50 (human GPR84 receptor)	IC50 (neutrophils)	Human Neutrophil migration inhibition - fold potency to Control Compound (neutrophils)	inhibition at 25 µM (human GPR84 receptor)	inhibition at 6.25 µM (human GPR84 receptor; HEK293, single concentration 6.25 μM (designated E))	inhibition at 10 µM (human GPR84 receptor)	inhibition at 5 µM (human GPR84 receptor; HEK293, single concentration 5 μM (designated D))	disease activity index score [1]	neutrophil infiltration [1]
Cc1cc(N2CCN(Cc3ccccn3)CC2)ccc1-c1cn(CC2OCC3(CC3)CO2)nn1 [Compound I-637]	> 75%	300 to 1000 nM	≤ 300 nM	A (IC50 of >1.0-fold relative to Control Compound)	–	–	–	–	–	–
Cc1cc(N2CC(C)(C)C2)ccc1-c1cn(CC2CCCCO2)nn1 (stereo not shown) [Compound I-75]	–	300 to 1000 nM	≤ 300 nM	B (IC50 of >0.5-≤1.0-fold relative to Control Compound)	> 75%	–	–	–	–	–
Cc1ccc(C#CC2CC2)cc1Cc1nnn(CC2CCCCO2)n1 (stereo not shown) [Compound I-418]	> 75%	300 to 1000 nM	1000 to 3000 nM	C (IC50≤0.5-fold relative to Control Compound)	–	–	–	–	–	–
CO[C@H](c1cn(C[C@@H]2CCCCO2)nn1)c1cc(C#CC2CC2)ccc1C [Compound I-512]	> 75%	300 to 1000 nM	≤ 300 nM	C (IC50≤0.5-fold relative to Control Compound)	–	–	–	–	–	–
Cc1cc(C#CC2CC2)ccc1-c1cn(CC2CCCCO2)nn1 (stereo not shown) [Compound I-34]	–	> 3000 nM	1000 to 3000 nM	C (IC50≤0.5-fold relative to Control Compound)	–	50 to 75%	–	–	–	–
Cc1cc(C#CCNc2ccccc2)ccc1-c1cn(C[C@@H]2CCCCO2)nn1 (stereo in doubt) [Compound I-144]	–	1000 to 3000 nM	1000 to 3000 nM	C (IC50≤0.5-fold relative to Control Compound)	–	–	≤ 25%	–	–	–
Cc1cc(C#CCn2cc(-c3ccc(N(C)C)cc3)nn2)ccc1-c1cn(CC2CCCCO2)nn1 (stereo not shown) [Compound I-456]	> 75%	≤ 300 nM	≤ 300 nM	A (IC50 of >1.0-fold relative to Control Compound)	–	–	–	–	–	–
Cc1ccc(C#CC2CC2)cc1C(OC1CC1)c1cn(CC2OCC(C)(C)CO2)nn1 (stereo not shown) [Compound I-644]	> 75%	300 to 1000 nM	≤ 300 nM	A (IC50 of >1.0-fold relative to Control Compound)	–	–	–	–	–	–
CCc1cc(C#CCO)ccc1-c1cn(CC2OCC(C)(C)CO2)nn1 [Compound I-620]	–	≤ 300 nM	≤ 300 nM	A (IC50 of >1.0-fold relative to Control Compound)	–	–	> 75%	–	–	–
CN(C)c1cc(N2CC(C)(CO)C2)ccc1-c1cn(CC2CC(C)(C)CO2)nn1 (stereo not shown) [Compound I-499]	–	300 to 1000 nM	≤ 300 nM	A (IC50 of >1.0-fold relative to Control Compound)	–	–	> 75%	–	–	–
CC(C)c1cc(C#CCN2CC(C)(C)C2)cnc1-c1cn(CC2CCCCO2)nn1 (stereo not shown) [Compound I-462]	–	1000 to 3000 nM	≤ 300 nM	C (IC50≤0.5-fold relative to Control Compound)	–	–	> 75%	–	–	–
Cc1cc(C#CC(C)C)ccc1-c1cn(CC2CCCCO2)nn1 (stereo not shown) [Compound I-66]	–	> 3000 nM	1000 to 3000 nM	C (IC50≤0.5-fold relative to Control Compound)	–	–	–	–	–	–
CN(C)c1cc(N2CC(C)(C)C2)ccc1-c1cn(CC2OCC(C)(C)CO2)nn1 [Compound I-585]	–	≤ 300 nM	≤ 300 nM	A (IC50 of >1.0-fold relative to Control Compound)	–	–	> 75%	–	–	–
Cc1cc(N2CCN([C@@H](C)c3ccccn3)CC2)ccc1-c1cn(C[C@H]2CCCCO2)nn1 [Compound I-612]	–	300 to 1000 nM	≤ 300 nM	A (IC50 of >1.0-fold relative to Control Compound)	–	–	> 75%	–	–	–
Cc1cc(C#CCN2CC(C)(C)C2)ccc1-c1cn(CC2OCC(C)(C)CO2)nn1 [Compound I-634]	–	≤ 300 nM	≤ 300 nM	A (IC50 of >1.0-fold relative to Control Compound)	–	–	> 75%	–	–	–
CC(C)c1cc(C#CC2CC2)ccc1-c1cn(CC2CCCCO2)nn1 (stereo not shown) [Compound I-88]	–	1000 to 3000 nM	1000 to 3000 nM	C (IC50≤0.5-fold relative to Control Compound)	–	–	–	–	–	–
Cc1ccc(C#CC2CC2)cc1-n1nc(CC2CCCO2)oc1=O (stereo not shown) [Compound I-17]	–	300 to 1000 nM	≤ 300 nM	B (IC50 of >0.5-≤1.0-fold relative to Control Compound)	–	–	> 75%	–	–	–
Cc1cc(N2CC(C)(N(C)Cc3ccccc3)C2)ccc1-c1cn(CC2CCCCO2)nn1 (stereo not shown) [Compound I-553]	–	300 to 1000 nM	≤ 300 nM	B (IC50 of >0.5-≤1.0-fold relative to Control Compound)	–	–	25 to 50%	–	–	–
Cc1cc(C#CCN(C)CC2(C(F)(F)F)CC2)ccc1-c1cn(CC2CCCCO2)nn1 (stereo not shown) [Compound I-138]	–	1000 to 3000 nM	1000 to 3000 nM	C (IC50≤0.5-fold relative to Control Compound)	–	–	50 to 75%	–	–	–
Cc1cc(C#CCN2CCN(c3ccccc3)CC2)ccc1-c1cn(CC2CCCCO2)nn1 (stereo not shown) [Compound I-120]	–	≤ 300 nM	≤ 300 nM	B (IC50 of >0.5-≤1.0-fold relative to Control Compound)	–	–	–	–	–	–
Cc1cc(C#CCN(C)Cc2ccccc2)ccc1-c1cn(CC2CCCCO2)nn1 (stereo not shown) [Compound I-76]	–	300 to 1000 nM	≤ 300 nM	B (IC50 of >0.5-≤1.0-fold relative to Control Compound)	–	–	–	> 75%	–	–
O=c1nc(OC[C@@H]2COCCO2)cc2n1CCc1cc(C#CC3CC3)ccc1-2 [GLPG1205]	–	–	–	–	–	–	–	–	reduced	reduced
CN(C)c1cc(C#CCNCc2ccccc2)ccc1-c1cn(CC2CCCCO2)nn1 (stereo not shown) [Compound I-188]	–	> 3000 nM	≤ 300 nM	A (IC50 of >1.0-fold relative to Control Compound)	–	–	–	–	–	–
CCc1cc(C#CCNc2ccccc2)cnc1-c1cn(CC2CC(C)(C)CO2)nn1 (stereo not shown) [Compound I-474]	> 75%	300 to 1000 nM	≤ 300 nM	A (IC50 of >1.0-fold relative to Control Compound)	–	–	–	–	–	–
Cc1ccc(C#CC2CC2)cc1-c1nnn(CC2CCCCO2)n1 (stereo not shown) [Compound I-7]	–	> 3000 nM	> 3000 nM	C (IC50≤0.5-fold relative to Control Compound)	> 75%	–	–	–	–	–
CC(C)Oc1cc(C#CCN2CC(C)(C)C2)ccc1-c1cn(C[C@H]2CCCCO2)nn1 [Compound I-413]	> 75%	300 to 1000 nM	≤ 300 nM	B (IC50 of >0.5-≤1.0-fold relative to Control Compound)	–	–	–	–	–	–
Cc1cc(N2CC(C)(CNc3ccccn3)C2)ccc1-c1cn(CC2CCCCO2)nn1 (stereo not shown) [Compound I-464]	> 75%	300 to 1000 nM	≤ 300 nM	C (IC50≤0.5-fold relative to Control Compound)	–	–	–	–	–	–
Cc1cc(N2CC(C)(CNc3ccccc3)C2)ccc1-c1cn(CC2CCCCO2)nn1 (stereo not shown) [Compound I-411]	–	≤ 300 nM	300 to 1000 nM	B (IC50 of >0.5-≤1.0-fold relative to Control Compound)	–	–	> 75%	–	–	–
